{"source": "patent US5786330A", "about": "“Peptide compounds which are therapeutically active in the cascade of blood coagulation, process for preparing them and pharmaceutical compositions containing them” (Adir et Compagnie, priority 1993, dated 1998)", "key": {"[1]": {"system": "kallikrein", "assay": "selectivity towards coagulation serine proteases: kallikrein", "type": "biochemical", "details": "2 nM enzyme, paranitroanilide-containing peptide substrate; read-out: IC50 with respect to kallikrein", "procedure": "(§1) In order to evaluate in vitro the selectivity of these products towards various coagulation serine proteases, the same procedure was applied to purified human plasmin (2 nM, Stago), to purified human activated factor X (2 nM, Stago), to kallikrein (2 nM, sigma), to urokinase (2 nM, sigma), to plasminogen tissue activator (t-PA; 2 nM, Stago) and to purified human activated protein C (2 nM, Stago) using, as substrate, various paranitroanilide-containing peptides. The inhibitors, enzymes and substrates are diluted in the same buffer ([…] phosphate buffer pH 7.4, containing 0.12M sodium chloride and 0.05% bovine serum albumin) and then distributed in a polystyrene microplate in a volume of 50 l.\n(§2) The fibrin formed by thrombin or the paranitroanilide liberated by the action of the serin protease is measured spectrophotometrically at 405 nm after reacting for 15 to 30 minutes at 20° C. […] The results are expressed in IC50 value: the concentration in nM which inhibits the enzymatic activity by 50%."}, "[2]": {"biological_target": "T1, urokinase (Homo sapiens, UniProt P00749)", "T1 construct": "purchased sigma", "assay": "selectivity towards coagulation serine proteases: urokinase", "type": "biochemical", "details": "2 nM enzyme, paranitroanilide-containing peptide substrate; read-out: IC50 with respect to urokinase", "procedure": "as §1, §2"}, "[3]": {"system": "activated cephalin time (ACT), OFA rats", "assay": "activated cephalin time (ACT) ex vivo in OFA rats", "details": "rat, 0.8 mg/kg i.v.", "procedure": "(§3) In the presence of a standard quantity of thrombin or activated cephalin, a normal plasma coagulates within a defined and constant time called thrombin time (TT) and activated cephalin time (ACT) respectively. The extension of these coagulation times by pharmacological substances reflects an anticoagulant effect.\n(§4) The effect of the products was tested ex vivo in OFA rats anesthetized with sodium pentobarbital (60 mg/kg i.p.) The carotid artery and the jugular vein are catheterized. After installation of the catheters, 1.5 cm^3 of arterial blood are collected over citrate (0.109M). 30 minutes later, the test product is administered in a volume of 1 ml by i.v. Arterial samples (1.5 cm^3) are then collected at […], 3 min, 5 min, 15 min, 30 min and 60 min. At each collection of sample, 1.5 cm^3 of citrated physiological saline is reinjected into the animal via the carotid."}, "[4]": {"system": "thrombin time (TT), OFA rats", "assay": "thrombin time (TT) ex vivo in OFA rats", "details": "rat, 0.8 mg/kg i.v.", "procedure": "as §3, §4"}, "[5]": {"biological_target": "T2, purified human plasmin (Homo sapiens, UniProt P00747)", "T2 construct": "purified human plasmin (2 nM, Stago); purchased Stago", "T2 sequence (P00747 581-810 limits assumed)": "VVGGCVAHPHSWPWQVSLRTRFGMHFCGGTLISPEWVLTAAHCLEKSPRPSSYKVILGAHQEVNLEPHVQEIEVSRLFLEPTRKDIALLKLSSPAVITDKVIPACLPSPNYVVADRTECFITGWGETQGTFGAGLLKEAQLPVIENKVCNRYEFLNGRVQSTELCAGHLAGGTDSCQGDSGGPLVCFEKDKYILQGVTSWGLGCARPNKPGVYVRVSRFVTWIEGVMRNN", "T2 sequence (P00747 97-580 limits assumed)": "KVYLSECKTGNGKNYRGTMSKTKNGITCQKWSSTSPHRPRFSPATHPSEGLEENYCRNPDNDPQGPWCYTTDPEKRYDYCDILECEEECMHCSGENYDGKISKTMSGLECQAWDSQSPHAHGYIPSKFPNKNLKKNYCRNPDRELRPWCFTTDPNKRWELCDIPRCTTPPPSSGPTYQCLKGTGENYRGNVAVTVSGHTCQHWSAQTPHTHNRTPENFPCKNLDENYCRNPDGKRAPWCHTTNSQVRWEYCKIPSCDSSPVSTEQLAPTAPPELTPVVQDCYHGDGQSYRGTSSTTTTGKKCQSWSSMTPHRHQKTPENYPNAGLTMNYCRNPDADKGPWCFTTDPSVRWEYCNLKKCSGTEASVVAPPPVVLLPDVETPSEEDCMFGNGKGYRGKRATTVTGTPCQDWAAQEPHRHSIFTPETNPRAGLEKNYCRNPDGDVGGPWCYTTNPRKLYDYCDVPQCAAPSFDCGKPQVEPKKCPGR", "assay": "selectivity towards coagulation serine proteases: plasmin", "type": "biochemical", "details": "2 nM enzyme, paranitroanilide-containing peptide substrate; read-out: IC50 with respect to plasmin", "procedure": "as §1, §2"}, "[6]": {"system": "thrombin time (TT), human plasma", "assay": "thrombin time (TT) in vitro on human plasma", "type": "biochemical", "details": "human plasma low in platelets, citrate", "procedure": "as §3\n(§5) The in vitro effect of the products of the invention was measured on human plasma. Blood was collected by venous puncture in a tube containing citrate. After decantation (1200 g, 10 min), the plasma low in platelets is decanted so as to then carry out the coagulation tests. […] The compound of Example 1 doubles the TT at the concentration of […] and the ACT at the concentration of […]."}, "[7]": {"system": "male OFA rats", "assay": "venous thrombosis induced by ligation of the vena cava inferior (weight of the clot)", "type": "in vivo", "details": "rat, clot withdrawn 25 minutes after ligation", "procedure": "The test animals are anesthetized by administration of sodium pentobarbital (50 mg/kg i.p.). 15 minutes before the ligation, the animals are treated with the test products via the i.v. route. The clot is withdrawn from the vena cava 25 minutes after the ligation, it is weighed after desiccation (24 hours at 60 C.)."}, "[8]": {"biological_target": "T3, plasminogen tissue activator (t-PA) (Homo sapiens, UniProt P00750)", "T3 construct": "purchased Stago", "T3 sequence (P00750 23-562 limits assumed, species assumed)": "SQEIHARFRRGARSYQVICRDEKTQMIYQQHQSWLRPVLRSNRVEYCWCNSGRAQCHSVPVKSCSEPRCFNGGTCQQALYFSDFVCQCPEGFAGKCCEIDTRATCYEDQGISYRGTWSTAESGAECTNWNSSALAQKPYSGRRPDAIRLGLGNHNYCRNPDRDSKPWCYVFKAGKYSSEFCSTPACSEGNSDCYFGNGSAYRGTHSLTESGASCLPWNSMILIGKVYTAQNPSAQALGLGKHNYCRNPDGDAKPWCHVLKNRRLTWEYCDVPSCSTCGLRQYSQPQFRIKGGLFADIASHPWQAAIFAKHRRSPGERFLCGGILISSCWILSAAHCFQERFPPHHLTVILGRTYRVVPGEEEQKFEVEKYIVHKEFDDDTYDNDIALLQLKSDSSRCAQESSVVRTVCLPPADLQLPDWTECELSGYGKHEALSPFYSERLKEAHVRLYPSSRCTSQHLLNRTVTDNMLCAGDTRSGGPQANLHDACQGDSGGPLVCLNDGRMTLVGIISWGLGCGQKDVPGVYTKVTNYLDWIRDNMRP", "assay": "selectivity towards coagulation serine proteases: t-PA", "type": "biochemical", "details": "2 nM enzyme, paranitroanilide-containing peptide substrate; read-out: IC50 with respect to t-PA", "procedure": "as §1, §2"}, "[9]": {"system": "activated cephalin time (ACT), human plasma", "assay": "activated cephalin time (ACT) in vitro on human plasma", "type": "biochemical", "details": "human plasma low in platelets, citrate", "procedure": "as §3, §5"}, "[10]": {"biological_target": "T4, purified human activated protein C (Homo sapiens, UniProt P04070)", "T4 construct": "purchased Stago", "T4 sequence (P04070 212-450 limits assumed)": "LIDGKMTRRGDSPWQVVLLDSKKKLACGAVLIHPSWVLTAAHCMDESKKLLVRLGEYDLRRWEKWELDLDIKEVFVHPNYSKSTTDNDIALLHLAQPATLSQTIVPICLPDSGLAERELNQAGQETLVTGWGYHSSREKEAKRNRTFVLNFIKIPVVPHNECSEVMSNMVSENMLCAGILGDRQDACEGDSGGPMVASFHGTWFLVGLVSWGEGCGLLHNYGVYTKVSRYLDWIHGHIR", "T4 sequence (P04070 43-197 limits assumed)": "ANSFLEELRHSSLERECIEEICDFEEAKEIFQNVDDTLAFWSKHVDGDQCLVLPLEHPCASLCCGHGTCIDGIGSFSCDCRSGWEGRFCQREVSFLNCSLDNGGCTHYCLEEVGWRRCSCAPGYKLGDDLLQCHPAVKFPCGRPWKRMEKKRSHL", "assay": "selectivity towards coagulation serine proteases: activated protein C", "type": "biochemical", "details": "2 nM enzyme, paranitroanilide-containing peptide substrate; read-out: IC50 with respect to activated protein C", "procedure": "as §1, §2"}, "[11]": {"biological_target": "T5, purified human activated factor X (Homo sapiens, UniProt P00742)", "T5 construct": "purchased Stago", "T5 sequence (P00742 235-488 limits assumed)": "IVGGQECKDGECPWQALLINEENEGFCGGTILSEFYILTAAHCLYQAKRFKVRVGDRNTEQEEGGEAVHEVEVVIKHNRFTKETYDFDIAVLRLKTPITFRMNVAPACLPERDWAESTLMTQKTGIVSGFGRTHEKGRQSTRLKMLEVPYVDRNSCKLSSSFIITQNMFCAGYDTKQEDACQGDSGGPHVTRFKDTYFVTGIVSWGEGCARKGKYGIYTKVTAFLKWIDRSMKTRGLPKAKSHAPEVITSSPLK", "T5 sequence (P00742 41-179 limits assumed)": "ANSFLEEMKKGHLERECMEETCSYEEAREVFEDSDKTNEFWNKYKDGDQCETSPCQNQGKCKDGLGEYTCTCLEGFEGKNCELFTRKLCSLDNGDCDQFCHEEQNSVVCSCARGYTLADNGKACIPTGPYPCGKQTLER", "assay": "selectivity towards coagulation serine proteases: activated factor X", "type": "biochemical", "details": "2 nM enzyme, paranitroanilide-containing peptide substrate; read-out: IC50 with respect to activated factor X", "procedure": "as §1, §2"}, "[12]": {"biological_target": "T6, human thrombin (Homo sapiens, UniProt P00734)", "T6 construct": "human thrombin (Sigma, specific activity 3230 NIHU/mg); purchased Sigma", "assay": "inhibition of thrombin, fibrinogen as substrate", "type": "biochemical", "details": "20 C, fibrin measured at 405 nm", "procedure": "(§6) In order to evaluate in vitro the inhibitory activity of the products of the invention on human thrombin (Sigma, specific activity 3230 NIHU/mg), human fibrinogen (purified or plasmatic) (Fg) or the chromogenic substrate H-D-Phe-Pip-Arg-pNA ([…], S 2238, Kabi) were added to a given quantity of thrombin (0.7 or 2 nM) previously incubated with or without the test inhibitor (20 C, 10 min).\nas §1, §2"}, "[13]": {"biological_target": "T6, human thrombin", "assay": "inhibition of thrombin, chromogenic substrate H-D-Phe-Pip-Arg-pNA (S 2238)", "type": "biochemical", "details": "20 C, 405 nm", "procedure": "as §6, §1, §2"}}, "note": "pIC50: −log10 of the molar value. *1 amine or outer side, *2 acyl side, *3 side chain or, on linkers, in order; H or OH if unused. Where a SMILES comes first, the peptide text is derived from it. [ ]: non-standard residue; d: D form. Phe(4-PO3H2) = N[C@@H](Cc1ccc(P(=O)(O)O)cc1)C(=O)O; Oic = O=C(O)[C@@H]1C[C@@H]2CCCC[C@@H]2N1; X1 = O=C([C@@H]1C2CCC(CC2)N1[*:1])[*:2]", "data": [{"smiles": "CC[C@H](C)[C@H](NC(=O)[C@H](CCC(=O)O)NC(=O)[C@H](CCC(=O)O)NC(=O)[C@H](Cc1ccccc1)NC(=O)[C@H](CC(=O)O)NC(=O)CNC(=O)[C@H](CC(N)=O)NC(=O)CNC(=O)CNC(=O)CNC(=O)CNC(=O)[C@@H]1CCCN1C(=O)[C@H](CCCNC(=N)N)NC(=O)[C@@H]1CCCN1C(=O)[C@H](N)Cc1ccccc1)C(=O)N1CCC[C@H]1C(=O)N[C@@H](CCC(=O)O)C(=O)N[C@@H](CCC(=O)O)C(=O)N[C@@H](Cc1ccc(O)cc1)C(=O)N[C@@H](CC(C)C)C(=O)O", "note": "[hirulog-1]", "values": [{"measurement": "pIC50", "setting": "[1]", "result": "< 4.48"}, {"measurement": "pIC50", "setting": "[2]", "result": "< 4.48"}, {"measurement": "Increase in the ACT (multiplicative factor)", "setting": "[3]; 1.5 min", "result": 3.8}, {"measurement": "Increase in the ACT (multiplicative factor)", "setting": "[3]; 3 min", "result": 3.2}, {"measurement": "Increase in the ACT (multiplicative factor)", "setting": "[3]; 5 min", "result": 2.6}, {"measurement": "Increase in the ACT (multiplicative factor)", "setting": "[3]; 15 min", "result": 2.1}, {"measurement": "Increase in the ACT (multiplicative factor)", "setting": "[3]; 30 min", "result": 1.6}, {"measurement": "Increase in the ACT (multiplicative factor)", "setting": "[3]; 60 min", "result": 1.3}, {"measurement": "Increase in the TT (multiplicative factor)", "setting": "[4]; 1.5 min", "result": 13}, {"measurement": "Increase in the TT (multiplicative factor)", "setting": "[4]; 3 min", "result": 11}, {"measurement": "Increase in the TT (multiplicative factor)", "setting": "[4]; 5 min", "result": 9.8}, {"measurement": "Increase in the TT (multiplicative factor)", "setting": "[4]; 15 min", "result": 6.6}, {"measurement": "Increase in the TT (multiplicative factor)", "setting": "[4]; 30 min", "result": 4.2}, {"measurement": "Increase in the TT (multiplicative factor)", "setting": "[4]; 60 min", "result": 2.2}, {"measurement": "pIC50", "setting": "[5]", "result": "< 4.48"}, {"measurement": "concentration that doubles the TT", "setting": "[6]", "result": 0.07, "unit": "M"}, {"measurement": "Decrease in the weight of the clot in %", "setting": "[7]; 0.1 mg/kg i.v. 15 minutes before ligation", "result": -0, "unit": "%"}, {"measurement": "Decrease in the weight of the clot in %", "setting": "[7]; 1 mg/kg i.v. 15 minutes before ligation", "result": -46, "unit": "%"}, {"measurement": "pIC50", "setting": "[8]", "result": "< 4.48"}, {"measurement": "concentration that doubles the ACT", "setting": "[9]", "result": 0.2, "unit": "M"}, {"measurement": "pIC50", "setting": "[10]", "result": "< 4.48"}, {"measurement": "pIC50", "setting": "[11]", "result": "< 4.48"}]}, {"smiles": "CC[C@H](C)[C@H](NC(=O)[C@@H]1C2CCC(CC2)N1C(=O)[C@H](CCC(=O)O)NC(=O)[C@H](Cc1ccccc1)NC(=O)[C@H](CC(=O)O)NC(=O)CNC(=O)[C@H](CC(N)=O)NC(=O)CNC(=O)CNC(=O)CNC(=O)CNC(=O)[C@@H]1CCCN1C(=O)[C@H](CCCNC(=N)N)NC(=O)[C@@H]1C[C@@H]2CCCC[C@@H]2N1C(=O)[C@H](N)Cc1ccccc1)C(=O)N1CCC[C@H]1C(=O)N[C@@H](CCC(=O)O)C(=O)N[C@@H](CCC(=O)O)C(=O)N[C@@H](Cc1ccc(P(=O)(O)O)cc1)C(=O)N[C@@H](CC(C)C)C(=O)N[C@H](CCC(=O)O)C(=O)O", "note": "[Example 2, H-phe-Oic-Arg-Pro-(Gly)4 -Asn-Gly-Asp-Phe-Glu-Abo-Ile-Pro-(Glu)2 -Phe(pPO3 H2)-Leu-glu-OH] (H-[dF][Oic]RPGGGGNGDFE[X1]IPEE[Phe(4-PO3H2)]L[dE]-OH)", "values": [{"measurement": "pIC50", "setting": "[12]", "result": 8.40}, {"measurement": "pIC50", "setting": "[13]", "result": 7.82}]}, {"smiles": "CC[C@H](C)[C@H](NC(=O)[C@@H]1C2CCC(CC2)N1C(=O)[C@H](CCC(=O)O)NC(=O)[C@H](Cc1ccccc1)NC(=O)[C@H](CC(=O)O)NC(=O)CNC(=O)[C@H](CC(N)=O)NC(=O)CNC(=O)CNC(=O)CNC(=O)CNC(=O)[C@@H]1CCCN1C(=O)[C@H](CCCNC(=N)N)NC(=O)[C@@H]1CCCN1C(=O)[C@H](N)Cc1ccccc1)C(=O)N1CCC[C@H]1C(=O)N[C@@H](CCC(=O)O)C(=O)N[C@@H](CCC(=O)O)C(=O)N[C@@H](Cc1ccc(P(=O)(O)O)cc1)C(=O)N[C@@H](CC(C)C)C(=O)N[C@H](CCC(=O)O)C(=O)O", "note": "[Example 1, H-phe-Pro-Arg-Pro-(Gly)4 -Asn-Gly-Asp-Phe-Glu-Abo-Ile-Pro-(Glu)2 -Phe(pPO3 H2)-Leu-glu-OH] (H-[dF]PRPGGGGNGDFE[X1]IPEE[Phe(4-PO3H2)]L[dE]-OH)", "values": [{"measurement": "pIC50", "setting": "[12]", "result": 8.21}, {"measurement": "pIC50", "setting": "[13]", "result": 7.74}]}]}
